The text below walks through data of paper PMC6033010, “A Targeted LC‐MS Strategy for Low‐Abundant HLA Class‐I‐Presented Peptide Detection Identifies Novel Human Papillomavirus T‐Cell Epitopes” (Proteomics, 2018).

Where a SMILES comes first, the peptide text is derived from it.

The target in this assay is T1, HLA‐A2 (Homo sapiens, UniProt P04439, D140Y/D185E/D98H/E176V/E277Q/G131W/G231S/I119V/I121R/I166T/I218V/L300P/L318F/N151K/N90K/P208A/P217A/Q86G/Q94H/R138H/R169H/T345S).
T1 construct: host or cells: BSM cells (HLA-A2+, HPV16-negative suspension cell line)
Kind of assay: In vitro competition-based cellular binding assay. To be noted: acid-stripped BSM cells, β2M, 150 nM fluorescein-labeled reference peptide FLPSDC(Fl)FPSV, test peptide 0.78–100 μM, overnight 4 °C, flow cytometry; mean of at least three experimental replicates; read-out: Experimental binding affinity [IC50(μM)]. As for the experimental part:
In Vitro Competition Based Binding Assays: In vitro competition‐based binding assays were performed as described in ref. 30. In brief, BSM cells were treated with citric acid buffer to strip off naturally presented peptides. Cells were incubated overnight at 4 °C with β2M, a constant concentration (150 nM) of fluorescein‐labeled HLA‐A2‐binding reference peptide (FLPSDC(Fl)FPSV), and six different concentrations (0.78 –100 μM) of the respective investigated non‐labeled peptide, competing for HLA‐binding. Fluorescence was measured by flow cytometry and data processed with FlowJo 10 (TreeStar, Ashland, OR, USA). A logistic four‐parametric non‐linear regression calculation using SigmaPlot 13 (Systat‐Software, San José, CA, USA) was conducted to calculate binding affinity (IC50). […] The assay was performed with at least three biological replicates for binders and two for non‐binders.
For orientation: In flow cytometry, cells or beads pass a laser one at a time.
The term IC50 denotes the concentration that inhibits the measured activity by half. In the case of `CSCC[C@H](NC(=O)[C@@H](N)Cc1ccc(O)cc1)C(=O)N[C@@H](CC(C)C)C(=O)N[C@@H](CC(=O)O)C(=O)N[C@@H](CC(C)C)C(=O)N[C@@H](CCC(N)=O)C(=O)N1CCC[C@H]1C(=O)N[C@@H](CCC(=O)O)C(=O)O` [E7_11–18] (H-YMLDLQPE-OH), the IC50 is 8.07 µM.
For `CSCC[C@H](NC(=O)[C@@H](N)Cc1ccc(O)cc1)C(=O)N[C@@H](CC(C)C)C(=O)N[C@@H](CC(=O)O)C(=O)N[C@@H](CC(C)C)C(=O)N[C@@H](CCC(N)=O)C(=O)N1CCC[C@H]1C(=O)N[C@@H](CCC(=O)O)C(=O)N[C@H](C(=O)N[C@H](C(=O)N[C@@H](CC(=O)O)C(=O)O)[C@@H](C)O)[C@@H](C)O` [E7_11–21], the IC50 was found to be 2.37 µM.
The result for `CSCC[C@H](NC(=O)[C@H](Cc1ccc(O)cc1)NC(=O)[C@@H](N)CCC(=O)O)C(=O)N[C@@H](CC(C)C)C(=O)N[C@@H](CC(=O)O)C(=O)N[C@@H](CC(C)C)C(=O)N[C@@H](CCC(N)=O)C(=O)N1CCC[C@H]1C(=O)N[C@@H](CCC(=O)O)C(=O)N[C@H](C(=O)O)[C@@H](C)O` [E7_10–19] reads 45.3 µM; that for `CSCC[C@H](NC(=O)[C@H](Cc1ccc(O)cc1)NC(=O)[C@H](CCC(=O)O)NC(=O)[C@H](Cc1c[nH]cn1)NC(=O)[C@H](CC(C)C)NC(=O)[C@@H](N)[C@@H](C)O)C(=O)N[C@@H](CC(C)C)C(=O)N[C@@H](CC(=O)O)C(=O)N[C@@H](CC(C)C)C(=O)N[C@@H](CCC(N)=O)C(=O)N1CCC[C@H]1C(=O)O` [E7_7–17] (H-TLHEYMLDLQP-OH), 19.3 µM; that for `CSCC[C@H](NC(=O)[C@H](CC(C)C)NC(=O)[C@H](CC(C)C)NC(=O)[C@H](CC(=O)O)NC(=O)[C@H](CCC(=O)O)NC(=O)[C@H](CC(C)C)NC(=O)[C@@H](N)[C@@H](C)O)C(=O)NCC(=O)N[C@H](C(=O)O)[C@@H](C)O` [E7_78–86] (H-TLEDLLMGT-OH), 64.6 µM.
The result for `CC[C@H](C)[C@H](NC(=O)[C@H](CC(=O)O)NC(=O)[C@H](Cc1c[nH]cn1)NC(=O)[C@@H](NC(=O)[C@@H](NC(=O)[C@@H](NC(=O)[C@H](CCC(N)=O)NC(=O)[C@H](CC(C)C)NC(=O)[C@@H](N)CCC(=O)O)[C@@H](C)O)[C@@H](C)O)[C@@H](C)CC)C(=O)O` [E6_25–33] (H-ELQTTIHDI-OH) reads 36.9 µM; that for `CSCC[C@H](N)C(=O)N[C@@H](CC(C)C)C(=O)N[C@@H](CC(=O)O)C(=O)N[C@@H](CC(C)C)C(=O)N[C@@H](CCC(N)=O)C(=O)N1CCC[C@H]1C(=O)N[C@@H](CCC(=O)O)C(=O)N[C@H](C(=O)O)[C@@H](C)O` [E7_12–19] (H-MLDLQPET-OH), 53.7 µM.
The result for `CC[C@H](C)[C@H](N)C(=O)N[C@@H](CCCNC(=N)N)C(=O)N[C@H](C(=O)N[C@@H](CC(C)C)C(=O)N[C@@H](CCC(=O)O)C(=O)N[C@@H](CC(=O)O)C(=O)N[C@@H](CC(C)C)C(=O)N[C@@H](CC(C)C)C(=O)N[C@@H](CCSC)C(=O)NCC(=O)N[C@H](C(=O)O)[C@@H](C)O)[C@@H](C)O` [E7_76–86] (H-IRTLEDLLMGT-OH) reads 31.9 µM; that for `CC[C@H](C)[C@H](NC(=O)CNC(=O)[C@H](CC(C)C)NC(=O)[C@@H](NC(=O)CNC(=O)[C@H](CCSC)NC(=O)[C@H](CC(C)C)NC(=O)[C@H](CC(C)C)NC(=O)[C@H](CC(=O)O)NC(=O)[C@@H](N)CCC(=O)O)[C@@H](C)O)C(=O)N[C@H](C(=O)O)C(C)C` [E7_80–90] (H-EDLLMGTLGIV-OH), 14.2 µM; that for `CSCC[C@H](NC(=O)[C@H](CC(C)C)NC(=O)[C@H](CC(C)C)NC(=O)[C@H](CC(=O)O)NC(=O)[C@H](CCC(=O)O)NC(=O)[C@H](CC(C)C)NC(=O)[C@@H](NC(=O)[C@@H](N)CCCNC(=N)N)[C@@H](C)O)C(=O)NCC(=O)N[C@H](C(=O)N[C@@H](CC(C)C)C(=O)O)[C@@H](C)O` [E7_77–87] (H-RTLEDLLMGTL-OH), 2.69 µM.
Take `CSCC[C@H](NC(=O)[C@H](CC(C)C)NC(=O)[C@H](CC(C)C)NC(=O)[C@H](CC(=O)O)NC(=O)[C@H](CCC(=O)O)NC(=O)[C@H](CC(C)C)NC(=O)[C@@H](NC(=O)[C@@H](N)CCCNC(=N)N)[C@@H](C)O)C(=O)NCC(=O)N[C@H](C(=O)O)[C@@H](C)O` [E7_77–86]: the half-inhibitory concentration (IC50) came to 66.9 µM.
The result for `CC[C@H](C)[C@H](NC(=O)CNC(=O)[C@H](CC(C)C)NC(=O)[C@@H](NC(=O)CNC(=O)[C@H](CCSC)NC(=O)[C@H](CC(C)C)NC(=O)[C@H](CC(C)C)NC(=O)[C@@H](N)CC(=O)O)[C@@H](C)O)C(=O)N[C@H](C(=O)O)C(C)C` [E7_81–90] (H-DLLMGTLGIV-OH) reads 81 µM.
